From PubChem BioAssay AID2060912 (Molecular Pharmacology Branch, DTP, NCI, 2025)

Tested on: HUVEC/MSC spheroids viability
Test: Human HUVEC/MSC cell line growth inhibition [KRAS2];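 as to viability, T/C: percent of DMSO vehicle control luminescence so 100% = untreated viability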
Settings: for IC50: curve of first compound; for viability, T/C: stronger effect = lower value
Summary of the method: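 HUVEC + hMSC stromal spheroids only, no malignant cells; 37 °C, 5% CO2. Drugs singly and in pairs, half-log series down from clinical Cmax (max 10 microM if Cmax undetermined).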

[1] = second compound 0.0316 µM, first compound 0.0316 µM
[2] = second compound 0.0316 µM, first compound 0.1 µM
[3] = second compound 0.1 µM, first compound 0.0316 µM
[4] = second compound 0.1 µM, first compound 0.1 µM
[5] = second compound 0.316 µM, first compound 0.0316 µM
[6] = second compound 0.316 µM, first compound 0.1 µM
[7] = second compound 1 µM, first compound 0.0316 µM
[8] = second compound 1 µM, first compound 0.1 µM
[9] = second compound 3.16 µM, first compound 0.0316 µM
[10] = second compound 3.16 µM, first compound 0.1 µM
[11] = second compound 10 µM, first compound 0.0316 µM
[12] = second compound 10 µM, first compound 0.1 µM

CC(C)NCC(C(=O)N1CCN(c2ncnc3c2C(C)CC3O)CC1)c1ccc(Cl)cc1 (centres undefined) + CNCc1ccccc1-c1csc(C(C)Nc2nc(C)nc3cc(OC)c(OC)cc23)c1
IC50 (second compound 0.0316 µM): > 10000 nM | IC50 (second compound 0.1 µM): > 10000 nM | IC50 (second compound 0.316 µM): > 10000 nM | IC50 (second compound 1 µM): > 10000 nM | IC50 (second compound 3.16 µM): > 10000 nM | IC50 (second compound 10 µM): < 31.6 nM | viability, T/C [1]: 95.5% | viability, T/C [2]: 108% | viability, T/C (second compound 0.0316 µM, first compound 0.316 µM): 98.5% | viability, T/C (second compound 0.0316 µM, first compound 1 µM): 70.2% | viability, T/C (second compound 0.0316 µM, first compound 3.16 µM): 69% | viability, T/C (second compound 0.0316 µM, first compound 10 µM): 64.2% | viability, T/C [3]: 94.8% | viability, T/C [4]: 97.8% | viability, T/C (second compound 0.1 µM, first compound 0.316 µM): 75.6% | viability, T/C (second compound 0.1 µM, first compound 1 µM): 70.4% | viability, T/C (second compound 0.1 µM, first compound 3.16 µM): 58.1% | viability, T/C (second compound 0.1 µM, first compound 10 µM): 54.1% | viability, T/C [5]: 82.2% | viability, T/C [6]: 106% | viability, T/C (second compound 0.316 µM, first compound 0.316 µM): 83.3% | viability, T/C (second compound 0.316 µM, first compound 1 µM): 73.5% | viability, T/C (second compound 0.316 µM, first compound 3.16 µM): 56.2% | viability, T/C (second compound 0.316 µM, first compound 10 µM): 50.8% | viability, T/C [7]: 84.6% | viability, T/C [8]: 106% | viability, T/C (second compound 1 µM, first compound 0.316 µM): 103% | viability, T/C (second compound 1 µM, first compound 1 µM): 71.3% | viability, T/C (second compound 1 µM, first compound 3.16 µM): 56.5% | viability, T/C (second compound 1 µM, first compound 10 µM): 51.6% | viability, T/C [9]: 108% | viability, T/C [10]: 93.2% | viability, T/C (second compound 3.16 µM, first compound 0.316 µM): 89.4% | viability, T/C (second compound 3.16 µM, first compound 1 µM): 79.5% | viability, T/C (second compound 3.16 µM, first compound 3.16 µM): 62.5% | viability, T/C (second compound 3.16 µM, first compound 10 µM): 57.7% | viability, T/C [11]: 0.38% | viability, T/C [12]: 0.44% | viability, T/C (second compound 10 µM, first compound 0.316 µM): 0.45% | viability, T/C (second compound 10 µM, first compound 1 µM): 0.42% | viability, T/C (second compound 10 µM, first compound 3.16 µM): 0.39% | viability, T/C (second compound 10 µM, first compound 10 µM): 0.26%

CC(C)n1nc(-c2ccc3oc(N)nc3c2)c2c(N)ncnc21 + CNCc1ccccc1-c1csc(C(C)Nc2nc(C)nc3cc(OC)c(OC)cc23)c1
IC50 (second compound 0.0316 µM): 3.15 nM | IC50 (second compound 0.1 µM): 3.11 nM | IC50 (second compound 0.316 µM): 7.12 nM | IC50 (second compound 1 µM): 7.98 nM | IC50 (second compound 3.16 µM): 7.84 nM | IC50 (second compound 10 µM): < 0.316 nM | viability, T/C (second compound 0.0316 µM, first compound 0.000316 µM): 85.2% | viability, T/C (second compound 0.0316 µM, first compound 0.001 µM): 69% | viability, T/C (second compound 0.0316 µM, first compound 0.00316 µM): 50.2% | viability, T/C (second compound 0.0316 µM, first compound 0.01 µM): 44% | viability, T/C [1]: 45.5% | viability, T/C [2]: 44.4% | viability, T/C (second compound 0.1 µM, first compound 0.000316 µM): 84.8% | viability, T/C (second compound 0.1 µM, first compound 0.001 µM): 64.6% | viability, T/C (second compound 0.1 µM, first compound 0.00316 µM): 49.9% | viability, T/C (second compound 0.1 µM, first compound 0.01 µM): 45.6% | viability, T/C [3]: 46.4% | viability, T/C [4]: 45% | viability, T/C (second compound 0.316 µM, first compound 0.000316 µM): 81.9% | viability, T/C (second compound 0.316 µM, first compound 0.001 µM): 66.5% | viability, T/C (second compound 0.316 µM, first compound 0.00316 µM): 50.5% | viability, T/C (second compound 0.316 µM, first compound 0.01 µM): 51.9% | viability, T/C [5]: 45.4% | viability, T/C [6]: 37.6% | viability, T/C (second compound 1 µM, first compound 0.000316 µM): 70.1% | viability, T/C (second compound 1 µM, first compound 0.001 µM): 52.5% | viability, T/C (second compound 1 µM, first compound 0.00316 µM): 56.2% | viability, T/C (second compound 1 µM, first compound 0.01 µM): 50.6% | viability, T/C [7]: 47% | viability, T/C [8]: 37.5% | viability, T/C (second compound 3.16 µM, first compound 0.000316 µM): 89.7% | viability, T/C (second compound 3.16 µM, first compound 0.001 µM): 79% | viability, T/C (second compound 3.16 µM, first compound 0.00316 µM): 67.5% | viability, T/C (second compound 3.16 µM, first compound 0.01 µM): 40.7% | viability, T/C [9]: 50.2% | viability, T/C [10]: 36.5% | viability, T/C (second compound 10 µM, first compound 0.000316 µM): 0.36% | viability, T/C (second compound 10 µM, first compound 0.001 µM): 0.39% | viability, T/C (second compound 10 µM, first compound 0.00316 µM): 0.37% | viability, T/C (second compound 10 µM, first compound 0.01 µM): 0.37% | viability, T/C [11]: 0.42% | viability, T/C [12]: 0.4%
